Test results reported in patent US10336721B2, “Biaryltriazole inhibitors of macrophage migration inhibitory factor” (YALE UNIVERSITY, priority 2015, dated 2019).
≈ marks a conversion by molar mass, not a printed value.

What was measured:
[1] = Aqueous solubility; type: physicochemical; details: aqueous solvent (not further specified), μg compound/mL solvent
[2] = molecular target: human MIF (Homo sapiens (Human), UniProt P14174); test: Inhibition of tautomerase activity of human MIF (HPP substrate); type: biochemical; details: for Ki: MIF tautomerase, HPP substrate, 50 nM MIF; for inhibition at 10 µM: read-out: % inhibition at 10 μM
Chain of human MIF (P14174 2-115): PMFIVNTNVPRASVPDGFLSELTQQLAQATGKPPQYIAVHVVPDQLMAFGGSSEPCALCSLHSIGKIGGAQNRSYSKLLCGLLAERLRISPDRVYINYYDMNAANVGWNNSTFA

Row | Ki [2] | SMILES | also measured
1 | – | Oc1ccc(-n2cc(-c3ccc4ccccc4n3)nn2)cc1 [Example 1, 4-(4-(Quinolin-2-yl)-1H-1,2,3-triazol-1-yl)phenol] | solubility [1]: 2.2 µg/mL (≈ 7.63 µM)
2 | – | COCCOc1ccc2nc(-c3cn(-c4ccc(O)cc4)nn3)ccc2c1 [Example 2, 4-(4-(6-(2-Methoxyethoxy)quinolin-2-yl)-1H-1,2,3-triazol-1-yl)phenol] | solubility [1]: 3.6 µg/mL (≈ 9.93 µM)
3 | 8900 nM | COCCOc1ccc2nc(-c3cn(-c4ccc(F)cc4)nn3)ccc2c1 [Example 3, 2-(1-(4-Fluorophenyl)-1H-1,2,3-triazol-4-yl)-6-(2-methoxyethoxy)quinoline] | –
4 | – | COCCOc1ccc(-c2cn(-c3ccc(Cl)cc3)nn2)nc1 [Example 4, 2-(1-(4-Chlorophenyl)-1H-1,2,3-triazol-4-yl)-5-(2-methoxyethoxy)pyridine] | inhibition at 10 µM [2]: 3%
5 | – | COCCOc1ccc2nc(-c3cn(-c4ccc(N)cc4)nn3)ccc2c1 [Example 5, 4-(4-(6-(2-Methoxyethoxy)quinolin-2-yl)-1H-1,2,3-triazol-1-yl)aniline] | inhibition at 10 µM [2]: 13%
6 | – | COCCOc1ccc2nc(-c3cn(-c4ccc(OC)cc4)nn3)ccc2c1 [Example 6, 6-(2-Methoxyethoxy)-2-(1-(4-methoxyphenyl)-1H-1,2,3-triazol-4-yl)quinoline] | inhibition at 10 µM [2]: 0%
7 | – | COCCOc1ccc2nc(-c3cn(-c4ccc(C#N)cc4)nn3)ccc2c1 [Example 7, 4-(4-(6-(2-Methoxyethoxy)quinolin-2-yl)-1H-1,2,3-triazol-1-yl)benzonitrile] | inhibition at 10 µM [2]: 8%
8 | – | COCCOc1ccc2nc(-c3cn(-c4ccc(C(N)=O)cc4)nn3)ccc2c1 [Example 8, 4-(4-(6-(2-Methoxyethoxy)quinolin-2-yl)-1H-1,2,3-triazol-1-yl)benzamide] | inhibition at 10 µM [2]: 0%
9 | – | COCCOc1ccc2nc(-c3cn(-c4ccc(O)c(C)c4)nn3)ccc2c1 [Example 9, 4-(4-(6-(2-Methoxyethoxy)quinolin-2-yl)-1H-1,2,3-triazol-1-yl)-2-methylphenol] | inhibition at 10 µM [2]: 15%
10 | – | COCCOc1ccc2nc(-c3cn(-c4ccc(O)c(OC)c4)nn3)ccc2c1 [Example 10, 2-Methoxy-4-(4-(6-(2-methoxyethoxy)quinolin-2-yl)-1H-1,2,3-triazol-1-yl)phenol] | inhibition at 10 µM [2]: 8%
11 | 7300 nM | Cc1cc2ccccc2nc1-c1cn(-c2ccc(O)cc2)nn1 [Example 11, 4-(4-(3-Methylquinolin-2-yl)-1H-1,2,3-triazol-1-yl)phenol] | –
12 | 2300 nM | Cc1cc(-c2cn(-c3ccc(O)cc3)nn2)nc2ccccc12 [Example 12, 4-(4-(4-Methylquinolin-2-yl)-1H-1,2,3-triazol-1-yl)phenol] | –
13 | – | Oc1ccc(-n2cc(-c3ccc4cccc(Cl)c4n3)nn2)cc1 [Example 13, 4-(4-(8-Chloroquinolin-2-yl)-1H-1,2,3-triazol-1-yl)phenol] | inhibition at 10 µM [2]: 16%
14 | 56000 nM | COc1cccc2ccc(-c3cn(-c4ccc(F)cc4)nn3)nc12 [Example 14, 2-(1-(4-Fluorophenyl)-1H-1,2,3-triazol-4-yl)-8-methoxyquinoline] | –
15 | 64000 nM | COCCOc1cccc2ccc(-c3cn(-c4ccc(F)cc4)nn3)nc12 [Example 15, 2-(1-(4-Fluorophenyl)-1H-1,2,3-triazol-4-yl)-8-(3-methoxyethoxy)quinoline] | –
16 | – | COc1ccc(-c2cccc3ccc(-c4cn(-c5ccc(O)cc5)nn4)nc23)cc1 [Example 16, 4-(4-(8-(4-Methoxyphenyl)quinolin-2-yl)-1H-1,2,3-triazol-1-yl)phenol] | inhibition at 10 µM [2]: 21%
17 | 2950 nM | Oc1ccc(-n2cc(-c3ccc4cccc(Oc5ccccc5)c4n3)nn2)cc1 [Example 17, 4-(4-(8-Phenoxyquinolin-2-yl)-1H-1,2,3-triazol-1-yl)phenol] | –
18 | 370 nM | Oc1ccc(-n2cc(-c3ccc4c(Oc5ccccc5)cccc4n3)nn2)cc1 [Example 18, 4-(4-(5-Phenoxyquinolin-2-yl)-1H-1,2,3-triazol-1-yl)phenol] | –
19 | 1950 nM | Oc1ccc(-n2cc(-c3ccc4cc(OCCCN5CCOCC5)ccc4n3)nn2)cc1 [Example 19, 4-(4-(6-(3-Morpholinopropoxy)quinolin-2-yl)-1H-1,2,3-triazol-1-yl)phenol] | –
20 | 3120 nM | Cc1cc2cc(OCCCN3CCOCC3)ccc2nc1-c1cn(-c2ccc(O)cc2)nn1 [Example 20, 4-(4-(3-Methyl-6-(3-morpholinopropoxy)quinolin-2-yl)-1H-1,2,3-triazol-1-yl)phenol] | –
21 | – | Oc1ccc(-n2cc(-c3ccc4cc(OCCOCCN5CCOCC5)ccc4n3)nn2)cc1 [Example 21, 4-(4-(6-(2-(2-Morpholinoethoxy)ethoxy)quinolin-2-yl)-1H-1,2,3-triazol-1-yl)phenol] | solubility [1]: 48.5 µg/mL (≈ 105 µM)
22 | – | Oc1ccc(-n2cc(-c3ccc4cc(OCCOCCN5CCOCC5)ccc4n3)nn2)cc1F [Example 22, 2-Fluoro-4-(4-(6-(2-(2-morpholinoethoxy)ethoxy)quinolin-2-yl)-1H-1,2,3-triazol-1-yl)phenol] | solubility [1]: 27.2 µg/mL (≈ 56.7 µM)

Row | Ki [2] | SMILES | also measured
23 | 29600 nM | Fc1ccc(-n2cc(-c3ccc4cc(OCCOCCN5CCOCC5)ccc4n3)nn2)cc1 [Example 23, 4-(2-(2-((2-(1-(4-Fluorophenyl)-1H-1,2,3-triazol-4-yl)quinolin-6-yl)oxy)ethoxy)ethyl)morpholine] | –
24 | 360 nM | COCCOc1ccc(Oc2cccc3nc(-c4cn(-c5ccc(O)cc5)nn4)ccc23)cc1 [Example 24, 4-(4-(5-(4-(2-Methoxyethoxy)phenoxy)quinolin-2-yl)-1H-1,2,3-triazol-1-yl)phenol] | –
25 | 82 nM | COCCOc1cccc(Oc2cccc3nc(-c4cn(-c5ccc(O)c(F)c5)nn4)ccc23)c1 [Example 25, 2-Fluoro-4-(4-(5-(3-(2-methoxyethoxy)phenoxy)quinolin-2-yl)-1H-1,2,3-triazol-1-yl)phenol] | –
26 | 1480 nM | Oc1ccc(-n2cc(-c3ccc4cccnc4n3)nn2)cc1 [Example 26, 4-(4-(1,8-Naphthyridin-2-yl)-1H-1,2,3-triazol-1-yl)phenol] | –
27 | – | Clc1ccc(-n2cc(-c3ccc4cccnc4n3)nn2)cc1 [Example 27, 2-(1-(4-Chlorophenyl)-1H-1,2,3-triazol-4-yl)-1,8-naphthyridine] | inhibition at 10 µM [2]: 9%
28 | – | NCCOCCOc1ccc2nc(-c3cn(-c4ccc(O)cc4)nn3)ccc2c1 [Example 28, 4-(4-(6-(2-(2-Aminoethoxy)ethoxy)quinolin-2-yl)-1H-1,2,3-triazol-1-yl)phenol] | solubility [1]: 13.9 µg/mL (≈ 35.5 µM)
29 | 850 nM | Oc1ccc(-n2cc(-c3ccc4ccc(OCCOCCN5CCOCC5)cc4n3)nn2)cc1 [Example 29, 4-(4-(7-(2-(2-Morpholinoethoxy)ethoxy)quinolin-2-yl)-1H-1,2,3-triazol-1-yl)phenol] | –
30 | 290 nM | Oc1ccc(-n2cc(-c3ccc4ccc(OCCOCCN5CCOCC5)cc4n3)nn2)cc1F [Example 30, 2-Fluoro-4-(4-(7-(2-(2-morpholinoethoxy)ethoxy)quinolin-2-yl)-1H-1,2,3-triazol-1-yl)phenol] | –
31 | 2350 nM | COCCOc1ccc2nc(-c3cn(-c4ccc(O)cc4)nn3)ncc2c1 [Example 31, 4-(4-(6-(2-Methoxyethoxy)quinazolin-2-yl)-1H-1,2,3-triazol-1-yl)phenol] | –
32 | – | O=C(O)c1cccc(Oc2cccc3nc(-c4cn(-c5ccc(O)c(F)c5)nn4)ccc23)c1 [Example 32, 3-((2-(1-(3-Fluoro-4-hydroxyphenyl)-1H-1,2,3-triazol-4-yl)quinolin-5-yl)oxy)benzoic acid] | solubility [1]: 47.2 µg/mL (≈ 107 µM)
33 | 3750 nM | Oc1c(F)cc(-n2cc(-c3ccc4cc(OCCOCCN5CCOCC5)ccc4n3)nn2)cc1F [Example 33, 2,6-Difluoro-4-(4-(6-(2-(2-morpholinoethoxy)ethoxy)quinolin-2-yl)-1H-1,2,3-triazol-1-yl)phenol] | –
34 | – | NCCOCCOc1ccc2nc(-c3cn(-c4ccc(O)c(F)c4)nn3)ccc2c1 [Example 34, 4-(4-(6-(2-(2-Aminoethoxy)ethoxy)quinolin-2-yl)-1H-1,2,3-triazol-1-yl)-2-fluorophenol] | solubility [1]: 9.1 µg/mL (≈ 22.2 µM)
35 | 110 nM | O=C(O)c1ccc(Oc2cccc3nc(-c4cn(-c5ccc(O)c(F)c5)nn4)ccc23)cc1 [Example 35, 4-((2-(1-(3-Fluoro-4-hydroxyphenyl)-1H-1,2,3-triazol-4-yl)quinolin-5-yl)oxy)benzoic acid] | –
36 | 4930 nM | O=C(O)c1cccc(Oc2cccc3nc(-c4cn(-c5ccc(F)c(F)c5)nn4)ccc23)c1 [Example 36, 3-((2-(1-(3,4-Difluorophenyl)-1H-1,2,3-triazol-4-yl)quinolin-5-yl)oxy)benzoic acid] | –
37 | 568 nM | NCc1cccc(Oc2cccc3nc(-c4cn(-c5ccc(O)c(F)c5)nn4)ccc23)c1 [Example 37, 4-(4-(5-(3-(Aminomethyl)phenoxy)quinolin-2-yl)-1H-1,2,3-triazol-1-yl)-2-fluorophenol] | –
38 | 128 nM | Oc1ccc(-n2cc(-c3ccc4c(Oc5cccc(OCCOCCN6CCOCC6)c5)cccc4n3)nn2)cc1F [Example 38, 2-Fluoro-4-(4-(5-(3-(2-(2-morpholinoethoxy)ethoxy)phenoxy)quinolin-2-yl)-1H-1,2,3-triazol-1-yl)phenol] | –
39 | 296 nM | O=C(O)c1ccc(Oc2cccc3ccc(-c4cn(-c5ccc(O)c(F)c5)nn4)nc23)cc1 [Example 39, 4-((2-(1-(3-Fluoro-4-hydroxyphenyl)-1H-1,2,3-triazol-4-yl)quinolin-8-yl)oxy)benzoic acid] | –
40 | 112 nM | O=C(O)c1cccc(Oc2cccc3ccc(-c4cn(-c5ccc(O)c(F)c5)nn4)nc23)c1 [Example 40, 3-((2-(1-(3-Fluoro-4-hydroxyphenyl)-1H-1,2,3-triazol-4-yl)quinolin-8-yl)oxy)benzoic acid] | –
41 | 2240 nM | O=C(O)COc1ccc2ccc(-c3cn(-c4ccc(O)c(F)c4)nn3)nc2c1 [Example 41, 2-((2-(1-(3-Fluoro-4-hydroxyphenyl)-1H-1,2,3-triazol-4-yl)quinolin-7-yl)oxy)acetic acid] | –
42 | 43 nM | O=C(O)CCCOc1ccc2ccc(-c3cn(-c4ccc(O)c(F)c4)nn3)nc2c1 [Example 42, 4-((2-(1-(3-Fluoro-4-hydroxyphenyl)-1H-1,2,3-triazol-4-yl)quinolin-7-yl)oxy)butanoic acid] | –
43 | – | O=C(O)CCCOc1ccc2nc(-c3cn(-c4ccc(O)c(F)c4)nn3)ccc2c1 [Example 43, 4-((2-(1-(3-Fluoro-4-hydroxyphenyl)-1H-1,2,3-triazol-4-yl)quinolin-6-yl)oxy)butanoic acid] | solubility [1]: 19.2 µg/mL (≈ 47 µM)
